The record followed here is PMC9024893, “1,2,4-Trioxolane and 1,2,4,5-Tetraoxane Endoperoxides against Old-World Leishmania Parasites: In Vitro Activity and Mode of Action” (Pharmaceuticals, 2022).

Common to all, as to assay type: cell-based
The nature of data set [1]: Cytotoxicity assay (MTT), J774A.1 cell line. The settings on record: mouse. Here is the method:
(§1) Adherent BALB/c mouse macrophage cell line J774A.1 (ATCC® TIB 67™) and suspension human acute monocytic leukemic cell line THP-1 (ATCC® TIB-202™) were purchased from DSMZ, Germany were cultured and maintained in DMEM medium (Gibco) and RPMI 1640 (Sigma), respectively, supplemented with 10% FBS, 1% penicillin-streptomycin (Sigma) and L-glutamine 200 mM (Sigma), at 37 °C, 5% CO2.
(§2) Cell lines J774A.1 and THP-1 were used to estimate CC50 of the peroxides. Cells were plated in 96-well flat bottom culture plates (VWR) at 5 × 10^5 cells/mL. The monocytic cell line THP-1 was differentiated in RPMI medium with phorbol myristate acetate (PMA) (25 ng/mL; Sigma) for 24 h, followed by a washing step with RPMI medium. Six serial concentrations of the compounds (Table 3) were added in four replicates and the plates were incubated at 37 °C ± 1 °C, 5% CO2 for 48 h. An untreated control (cells in DMEM or RPMI medium plus 0.5% DMSO as vehicle) and blank (medium alone) were plated out in quadruplicate. After the incubation period, 20 µL/well of MTT [3-(4,5-dimethylthiazol-2-yl)-2,5-diphenyltetrazolium bromide] was added to a final concentration of 5 µg/mL in 1× phosphate-buffered saline (PBS, Merck), with an additional 4 h incubation at 36 °C, as previously described. The formazan salts were resuspended in 2-propanol (Merck) and the cell viability was determined by measuring absorbance with a Synergy ™HTX Multi Mode Microplate Reader at 595 nm (Dynex Technologies). The CC50 values were calculated fitting the data as a non-linear regression with variable slope using a dose-response inhibitory model, in the GraphPad Prism V 8.0 program. Each compound was tested in three independent assays.

A short description of data set [2]: Cytotoxicity assay (MTT), PMA-differentiated THP-1 cell line. The settings on record: human. Here is the method:
as §1, §2

Data set [3] deals with L. infantum IMT151 promastigotes. Put plainly: Promastigotes susceptibility assay (MTT), L. infantum. To be noted: Leishmania infantum; 48 h incubation, MTT; read-out: IC50 ± SD, L. infantum promastigotes. Here is the method:
(§3) Promastigote forms of strains of L. infantum (MHOM/PT/1988/IMT151) and L. donovani (MHOM/BD/2006/BD14) were cultured at 24 °C ± 1 °C in M199 medium (Sigma) supplemented with 20% foetal bovine serum (FBS, Sigma) and 1% penicillin-streptomycin (Sigma). L. infantum strain belongs to IHMT, Portugal cryobank collection and the L. donovani strain was kindly provided by Dr. Katrin Kuhls, Technical University of Applied Sciences Wildau, Germany. Promastigotes used for the experiments had 7 to 12 in vitro passages in culture after isolation from mice, in order to keep virulence, and were used when the stationary phase of growth was reached (day 5 to 6), corresponding to the highest promastigotes density.
(§4) For the determination of the antileishmanial activity and IC50, promastigotes of L. infantum and L. donovani were plated in 96-well flat bottom culture plates at a concentration of 5 × 10^6 parasites/mL and incubated with six serial concentrations of each compound (Table 3), in four replicates, including the control drugs, amphotericin B, miltefosine and pentamidine. One untreated control (parasites with M199 medium plus 0.5% DMSO as vehicle solution) and one blank (M199 medium alone) were also plated out in quadruplicate. After 48 h incubation at 24 °C ± 1 °C, the inhibitory activity of the compounds was evaluated using the MTT, as previously described, with an additional 4 h incubation at 36 °C. Results were expressed in terms of percentage of parasite viability relative to nontreated control and IC50 was calculated fitting the data as a non-linear regression with variable slope using a dose-response inhibitory model, in the GraphPad Prism V 8.0 program. Each compound was tested in three independent assays. […]

Data set [4] relates to L. donovani BD14 promastigotes. Description: Promastigotes susceptibility assay (MTT), L. donovani. To be noted: Leishmania donovani; 48 h incubation, MTT; read-out: IC50 ± SD, L. donovani promastigotes. Here is the method: as §3, §4
Data set [5] relates to L. infantum IMT151 intracellular amastigotes. Put plainly: Intracellular amastigotes assay in J774A.1 macrophages, L. infantum. The settings on record: Leishmania infantum, J774.A1; 48 h incubation, J774A.1 host cells; read-out: IC50 ± SD, L. infantum intracellular amastigotes. Here is the method: (§5) The intracellular assay using the macrophage J774A.1 cell line was performed with the compounds that presented best SI on the promastigote’s susceptibility assay. J774A.1 cells were adjusted to 2.5 × 10^5 cells/mL in supplemented DMEM medium. 200 μL/well of the cell suspension was placed in 16 well Lab Tek culture glass slides (Nunc), and incubated at 37 °C ± 1 °C, 5% CO2, for 3 h, to enable the cells to adhere to the slides. After a washing step with DMEM to discard non-attached cells, the cells were infected with 2.5 × 10^6 cells/mL promastigotes in a 10:1 parasite-host cell proportion for 24 h. Compounds and control drugs were added in two replicates of six serial concentrations (Table 3). As negative control, macrophages were cultivated in medium and DMSO, as vehicle solution (0.5% v/v). Slides were incubated for 48 h at the same temperature. After a washing step with 1× PBS (Sigma), slides were fixed and stained, and the infection index was calculated according to [34] by counting the number of intracellular amastigotes per 100 macrophages, in treated and untreated cells. Two independent experiments were performed to determine the amastigotes IC50 of each compound, which was calculated by fitting the data as a non-linear regression with variable slope using a dose-response inhibitory model, in the GraphPad Prism V 8.0 program. SI was determined as described above.

In data set [6] the test system is L. donovani BD14 intracellular amastigotes. Put plainly: Intracellular amastigotes assay in J774A.1 macrophages, L. donovani. The settings on record: Leishmania donovani, J774.A1; 48 h incubation, J774A.1 host cells; read-out: IC50 ± SD, L. donovani intracellular amastigotes. Here is the method:
as §5

Take `C[C@@H]1[C@H](O)[C@@H](C)/C=C/C=C/C=C/C=C/C=C/C=C/C=C/[C@H](O[C@@H]2O[C@H](C)[C@@H](O)[C@H](N)[C@@H]2O)C[C@@H]2O[C@](O)(C[C@@H](O)C[C@@H](O)[C@H](O)CC[C@@H](O)C[C@@H](O)CC(=O)O[C@H]1C)C[C@H](O)[C@H]2C(=O)O` [AmB, amphotericin B, reference compound]: the CC50 (as a rule, the concentration giving 50% cytotoxicity) at 48 h came to 71.9 ± 5.4 µM in data set [1] and 23.2 ± 3 µM in data set [2]. Also, the IC50 (in general, the midpoint of a concentration-inhibition curve) stood at 0.2 µM in data set [3], 0.3 µM in data set [4], 0.3 ± 0.1 µM in data set [5] and 0.1 µM in data set [6].
For `CCOC(=O)C1CCC2(CC1)OOC1(OO2)C2CC3CC(C2)CC1C3` (stereo not drawn) [LC138], the CC50 at 48 h in data set [1] (J774A.1 macrophage cells, 48 h incubation, MTT, read-out: CC50 ± SD, J774A.1 Cell Line) came out at 528 ± 54 µM; in data set [2] (PMA-differentiated THP-1 cells, 48 h incubation, MTT, read-out: CC50 ± SD, THP-1 Cell Line), 2839 ± 15 µM. Moreover, the IC50 in data set [3] came to 125 ± 1.6 µM; in data set [4] it was 240 ± 34.8 µM; in data set [5], 23.9 ± 2.7 µM; in data set [6], 426 ± 25.5 µM.
